Measured values taken from patent US11878975B2, “Substituted indole compounds useful as TLR inhibitors” (BRISTOL-MYERS SQUIBB COMPANY, priority 2017, dated 2024).

Columns and labels:
Type in all cases: cell-based
human TLR7 = biological target: T1, human TLR7 (Homo sapiens, UniProt Q9NYK1); assay: TLR7 inhibition reporter assay (HEK-Blue cells, SEAP reporter, gardiquimod stimulation); conditions: HEK-Blue cells overexpressing human TLR7, SEAP reporter, gardiquimod 7.5 μM
T1 construct: host or cells: HEK-Blue cells
T1 sequence (Q9NYK1 27-1049): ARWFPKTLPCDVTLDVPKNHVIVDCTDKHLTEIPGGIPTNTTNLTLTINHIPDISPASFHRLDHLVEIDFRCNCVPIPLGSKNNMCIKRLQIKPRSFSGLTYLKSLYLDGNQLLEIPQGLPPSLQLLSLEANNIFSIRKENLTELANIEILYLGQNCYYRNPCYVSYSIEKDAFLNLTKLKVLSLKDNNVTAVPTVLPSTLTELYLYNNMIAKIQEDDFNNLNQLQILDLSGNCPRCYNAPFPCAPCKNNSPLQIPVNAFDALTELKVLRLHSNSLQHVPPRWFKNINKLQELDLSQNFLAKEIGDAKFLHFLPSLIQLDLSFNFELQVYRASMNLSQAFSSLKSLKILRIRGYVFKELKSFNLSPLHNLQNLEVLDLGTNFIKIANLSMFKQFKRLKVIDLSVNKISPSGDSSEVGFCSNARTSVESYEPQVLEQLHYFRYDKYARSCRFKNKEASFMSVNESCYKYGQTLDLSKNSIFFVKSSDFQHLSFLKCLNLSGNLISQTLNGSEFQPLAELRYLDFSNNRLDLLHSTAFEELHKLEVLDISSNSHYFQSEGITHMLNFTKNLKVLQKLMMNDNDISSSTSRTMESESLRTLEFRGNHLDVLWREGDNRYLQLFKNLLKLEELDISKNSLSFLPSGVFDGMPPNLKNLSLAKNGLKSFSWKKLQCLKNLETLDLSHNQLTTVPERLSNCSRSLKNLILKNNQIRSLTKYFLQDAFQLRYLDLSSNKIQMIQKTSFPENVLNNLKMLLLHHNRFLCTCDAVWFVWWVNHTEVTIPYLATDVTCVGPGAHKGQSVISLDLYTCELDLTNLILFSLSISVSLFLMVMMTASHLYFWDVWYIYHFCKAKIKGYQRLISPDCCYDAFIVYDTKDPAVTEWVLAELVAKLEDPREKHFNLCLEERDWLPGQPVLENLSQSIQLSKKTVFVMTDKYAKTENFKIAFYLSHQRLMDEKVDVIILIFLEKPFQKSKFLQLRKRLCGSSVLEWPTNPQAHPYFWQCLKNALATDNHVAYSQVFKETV
How it was run: (§1)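 HEK-Blue cells with NF-κB/AP-1-driven SEAP reporter, pre-treated 30 min at room temperature with compound (0.05 nM-50 μM). Stimulants: gardiquimod 7.5 μM (TLR7), R848 15.9 μM (TLR8) or ODN2006 5 nM (TLR9). SEAP measured after 22 h at 37° C.; percent inhibition versus agonist-plus-DMSO and known-inhibitor wells.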

human TLR9 = biological target: T2, human TLR9 (Homo sapiens, UniProt Q9NR96); assay: TLR9 inhibition reporter assay (HEK-Blue cells, SEAP reporter, ODN2006 stimulation); conditions: HEK-Blue cells overexpressing human TLR9, SEAP reporter, ODN2006 5 nM
T2 construct: host or cells: HEK-Blue cells
T2 sequence (Q9NR96 26-1032): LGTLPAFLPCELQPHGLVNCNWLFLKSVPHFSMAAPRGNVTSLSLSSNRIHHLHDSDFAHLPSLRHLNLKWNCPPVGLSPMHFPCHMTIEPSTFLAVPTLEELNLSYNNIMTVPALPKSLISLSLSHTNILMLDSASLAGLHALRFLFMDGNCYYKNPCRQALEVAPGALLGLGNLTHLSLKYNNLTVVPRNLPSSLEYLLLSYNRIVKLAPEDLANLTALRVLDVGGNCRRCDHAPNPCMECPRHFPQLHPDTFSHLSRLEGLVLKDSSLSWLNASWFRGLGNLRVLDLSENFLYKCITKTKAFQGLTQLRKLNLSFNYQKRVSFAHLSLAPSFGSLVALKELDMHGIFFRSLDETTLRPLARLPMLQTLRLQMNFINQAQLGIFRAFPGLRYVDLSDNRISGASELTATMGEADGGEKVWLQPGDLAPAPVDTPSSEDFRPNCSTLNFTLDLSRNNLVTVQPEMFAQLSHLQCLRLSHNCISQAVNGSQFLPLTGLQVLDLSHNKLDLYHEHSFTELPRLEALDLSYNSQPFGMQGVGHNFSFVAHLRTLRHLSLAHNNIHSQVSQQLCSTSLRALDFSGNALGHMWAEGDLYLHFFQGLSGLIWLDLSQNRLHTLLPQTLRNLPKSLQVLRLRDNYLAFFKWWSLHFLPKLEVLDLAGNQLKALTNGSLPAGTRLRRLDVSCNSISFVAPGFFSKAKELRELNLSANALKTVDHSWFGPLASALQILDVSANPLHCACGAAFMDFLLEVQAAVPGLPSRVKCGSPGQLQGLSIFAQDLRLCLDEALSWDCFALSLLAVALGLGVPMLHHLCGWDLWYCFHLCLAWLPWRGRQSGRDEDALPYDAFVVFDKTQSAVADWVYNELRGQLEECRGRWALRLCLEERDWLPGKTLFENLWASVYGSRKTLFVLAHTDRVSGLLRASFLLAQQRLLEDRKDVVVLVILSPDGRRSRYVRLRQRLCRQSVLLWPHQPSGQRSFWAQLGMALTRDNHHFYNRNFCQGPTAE
How it was run: as §1

human TLR8 = biological target: T3, human TLR8 (Homo sapiens, UniProt Q9NR97); assay: TLR8 inhibition reporter assay (HEK-Blue cells, SEAP reporter, R848 stimulation); conditions: HEK-Blue cells overexpressing human TLR8, SEAP reporter, R848 15.9 μM
T3 construct: host or cells: HEK-Blue cells
T3 sequence (Q9NR97 27-1041): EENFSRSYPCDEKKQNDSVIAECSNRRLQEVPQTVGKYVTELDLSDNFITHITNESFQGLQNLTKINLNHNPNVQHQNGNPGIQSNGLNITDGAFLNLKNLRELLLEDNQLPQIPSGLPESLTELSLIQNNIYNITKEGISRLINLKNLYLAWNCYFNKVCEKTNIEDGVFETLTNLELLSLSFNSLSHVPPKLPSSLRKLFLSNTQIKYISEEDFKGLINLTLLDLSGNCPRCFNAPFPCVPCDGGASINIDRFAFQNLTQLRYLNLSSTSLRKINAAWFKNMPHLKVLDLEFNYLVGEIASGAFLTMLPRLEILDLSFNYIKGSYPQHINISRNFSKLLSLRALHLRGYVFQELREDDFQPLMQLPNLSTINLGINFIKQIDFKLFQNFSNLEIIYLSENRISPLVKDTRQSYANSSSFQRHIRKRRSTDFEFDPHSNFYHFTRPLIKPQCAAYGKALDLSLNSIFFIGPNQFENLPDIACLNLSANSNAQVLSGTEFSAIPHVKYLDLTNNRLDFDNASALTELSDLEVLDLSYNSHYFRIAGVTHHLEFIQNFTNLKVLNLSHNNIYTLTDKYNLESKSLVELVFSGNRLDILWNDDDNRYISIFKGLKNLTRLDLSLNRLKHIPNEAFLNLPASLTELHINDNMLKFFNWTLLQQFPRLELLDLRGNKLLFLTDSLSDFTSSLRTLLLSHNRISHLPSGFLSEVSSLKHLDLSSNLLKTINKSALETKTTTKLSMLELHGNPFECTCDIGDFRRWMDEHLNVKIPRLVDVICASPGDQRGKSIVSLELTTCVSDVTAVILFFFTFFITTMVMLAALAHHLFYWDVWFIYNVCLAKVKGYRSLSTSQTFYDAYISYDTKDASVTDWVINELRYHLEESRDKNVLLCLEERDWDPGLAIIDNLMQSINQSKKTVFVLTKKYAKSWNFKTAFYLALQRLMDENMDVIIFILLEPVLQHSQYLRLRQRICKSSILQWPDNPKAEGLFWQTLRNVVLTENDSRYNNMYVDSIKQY
How it was run: as §1

IC50 (human TLR7) [nM] | IC50 (human TLR9) [µM] | IC50 (human TLR8) [nM] | SMILES
3 | 5.26 | 3.2 | COCCN1CCCC(c2ccc3[nH]c(-c4cc(OC)c5ncnn5c4)c(C(C)C)c3c2)C1 (stereo not drawn) [Example 251, 6-(3-isopropyl-5-(1-(2-methoxyethyl)piperidin-3-yl)-1H-indol-2-yl)-8-methoxy-[1,2,4]triazolo[1,5-a]pyridine]
2 | 5.41 | 2.8 | Cc1c(-c2[nH]c3ccc(C4CC(N(C)C(=O)CN(C)C)C4)cc3c2C(C)C)cn2ncnc2c1C (stereo not drawn) [Example 589]
0.78 | 2.05 | 7.1 | CNCC(=O)N1CCOC(c2ccc3[nH]c(-c4cc(C)c5ncnn5c4)c(C(C)C)c3c2)C1 (stereo not drawn) [Example 338]
0.15 | 0.661 | 0.47 | Cc1cc(-c2[nH]c3ccc(C4CCC(NC5CC5)CC4)cc3c2C(C)C)cn2ncnc12 (single isomer, unassigned) [Example 16]
7 | 24.9 | 21 | Cc1c(-c2[nH]c3ccc(C4CCC(N5CC(F)(F)C5)CC4)cc3c2C(C)C)cn2ncnc2c1C (stereo not drawn) [Example 24]
35 | 13.7 | 8.4 | Cc1cc(-c2[nH]c3ccc(CCN4CCCC4)cc3c2C(C)C)cn(C)c1=O [Example 405]
5 | 8.61 | 4.1 | Cc1c(-c2[nH]c3ccc(C4CCC(NCC(=O)N(C)C)CC4)cc3c2C(C)C)cn(C)c(=O)c1C (stereo not drawn) [Example 479]
3 | 7.37 | 5.7 | COc1cc(-c2[nH]c3ccc(C4CCCN(CC(N)=O)C4)cc3c2C(C)C)cn2ncnc12 (stereo not drawn) [Example 234]
0.53 | 0.98 | 0.76 | COc1cc(-c2[nH]c3ccc(C4CC(N)C4)cc3c2C(C)C)cn2ncnc12 (stereo not drawn) [Example 568]
3 | 24.5 | 13 | COc1cc(-c2[nH]c3ccc(C4CCC(N(C)CC(F)F)CC4)cc3c2C(C)C)cn2ncnc12 (stereo not drawn) [Example 74]
0.15 | 3.03 | 0.87 | COc1cc(-c2[nH]c3ccc(C4CCC(NC5COC5)CC4)cc3c2C(C)C)cn2ncnc12 (stereo not drawn) [Example 64]
69 | 20.3 | 86 | Cc1cc(-c2[nH]c3ccc(C4CN(CC(=O)N(C)C)CCO4)cc3c2C(C)C)cc(C)n1 (stereo not drawn) [Example 322]
2 | 4.83 | 5.1 | CNCC(=O)N1CCOC(c2ccc3[nH]c(-c4cn5ncnc5c(C)c4C)c(C(C)C)c3c2)C1 (stereo not drawn) [Example 340]
0.17 | 1.26 | 0.47 | COc1cc(-c2[nH]c3ccc(C4CCC(NC5CC5)CC4)cc3c2C(C)C)cn2ncnc12 (stereo not drawn) [Example 10]
15 | > 50 | 25 | Cc1c(-c2[nH]c3ccc(C4CN(CC(=O)N(C)C)CCO4)cc3c2C(C)C)cn2ncnc2c1C (stereo not drawn) [Example 321]
76 | 2.11 | 36 | Cc1c(-c2[nH]c3ccc(CC4CNC4)cc3c2C(C)C)cn(C)c(=O)c1C [Example 417]
1690 | 28.6 | 1850 | Cc1cc(-c2[nH]c3ccc(C4CCC(C(=O)N5CCCCC5)CC4)cc3c2C(C)C)cn2ncnc12 (single isomer, unassigned) [Example 159]
0.22 | 0.569 | 0.73 | CNC1CCC(c2ccc3[nH]c(-c4cc(OC)c5ncnn5c4)c(C(C)C)c3c2)CC1 (single isomer, unassigned) [Example 145, 4-(3-isopropyl-2-(8-methoxy-[1,2,4]triazolo[1,5-a]pyridin-6-yl)-1H-indol-5-yl)-N-methylcyclohexanamine]
6 | 2.19 | 9.3 | Cc1c(-c2[nH]c3ccc(C4CN(CC(C)C)C4)cc3c2C(C)C)cn2cnnc2c1C [Example 549]
279 | 2.85 | 158 | CC(C)c1c(-c2ccnc3[nH]ncc23)[nH]c2ccc(CN3CCCCC3)cc12 [Example 443]
138 | 5.88 | 73 | CCc1c(-c2ccc(OC)c(OC)c2)[nH]c2ccc(CN3CCNCC3)cc12 [Example 390, 2-(3,4-dimethoxyphenyl)-3-ethyl-5-(piperazin-1-ylmethyl)-1H-indole]
0.43 | 1.49 | 11 | COc1cc(-c2[nH]c3ccc(C4CC5CNCC5C4)cc3c2C(C)C)cn2ncnc12 (stereo not drawn) [Example 508]
2 | 5.65 | 3.8 | Cc1c(-c2[nH]c3ccc(C4CC(N(C)C(=O)CN(C)C)C4)cc3c2C(C)C)cn2ncnc2c1C (stereo not drawn) [Example 584]

SMILES | IC50 (human TLR7) [nM] | IC50 (human TLR9) [µM] | IC50 (human TLR8) [nM]
Cc1cc(-c2[nH]c3ccc(C4CCCN(C(=O)C5C(C)(C)C5(C)C)C4)cc3c2C(C)C)cc(C)n1 (stereo not drawn) [Example 200] | 40 | 26.5 | 244
